Results reported in patent publication US12410133B2, “Crystalline (r)-5-carbamoylpyridin-3-yl-2-methyl-4-(3-(trifluoromethoxy)benzyl)piperazine-1-carboxylate, compositions and methods of use thereof” (Celgene Corporation, priority 2018, dated 2025).
Converted amounts (≈) assume the structure as drawn.

What was measured:
physchem = conditions: thermodynamic from solid
[1] = Solution stability test of Form A in physiologically relevant media at 37° C.; assay type: physicochemical; set-up: unit not given here
Experimental: A solution stability test of Form A was performed to assess substantial degradation of (R)-5-carbamoylpyridin-3-yl-2-methyl-4-(3-(trifluoromethoxy)benzyl)piperazine-1-carboxylate in physiologically relevant media. A solution of (R)-5-carbamoylpyridin-3-yl-2-methyl-4-(3-(trifluoromethoxy)benzyl)piperazine-1-carboxylate (1 mg/mL) was prepared in acetonitrile/water (50/50 v/v). Test medium (1990 μL) was added to a vial. Test media evaluated included buffers pH 1-8, simulated gastric fluid (SGF), fasted state simulated intestinal fluid (FaSSIF), and fed state simulated intestinal fluid (FeSSIF). Stock solution (10 μL) was added to the vial containing the medium. This mixture was stirred to mix well and transferred to a HPLC vial, which was placed in the autosampler maintained at 37° C. The vial was injected repeatedly every 4 hr for 24 hr.

[2] = Solubility of Form A in physiologically relevant media (37° C.); assay type: physicochemical
[3] = Dynamic vapor sorption (DVS) of Form A; assay type: physicochemical
Experimental: Dynamic vapor sorption (DVS) was performed on a Surface Measurement Systems DVS Intrinsic. The relative humidity at 25° C. were calibrated against deliquescence point of LiCl, Mg(NO3)2, and KCl. Sample sizes were between 10-20 mg. Gas and flow rate was nitrogen, 200 mL/min; dm/dt: 0.002%/min.

[4] = pKa detection by Sirius T3; assay type: physicochemical; conditions: Sirius T3, range 2.0 to 12.0, in triplicate; read-out: Measured pKa value
Experimental: A summary of baseline solid state characterization results of crystalline (R)-5-carbamoylpyridin-3-yl-2-methyl-4-(3-(trifluoromethoxy)benzyl)piperazine-1-carboxylate Form A, including pKa, partition coefficient (log D7.4) measurement and 2-hrs equilibrium solubility in FaSSIF and FeSSIF (version 2) are provided herein. […] Log D7.4 was measured with the solvent system of pH 7.4 phosphate buffer and n-octanol by shake-flask method. Meanwhile, 2-hrs equilibrium solubility of (R)-5-carbamoylpyridin-3-yl-2-methyl-4-(3-(trifluoromethoxy)benzyl)piperazine-1-carboxylate in FaSSIF and FeSSIF (version 2) was measured to be 0.12 and 0.080 mg/mL.

[5] = Interconversion study: competitive slurry of Form A and B; assay type: physicochemical; conditions: from RT to 50° C.
Experimental: An interconversion study of crystal forms was performed. To understand the thermodynamic stability relationship between Form A and B, competitive slurry experiments were performed at RT and 50° C. in water and toluene. Prior to the study, Form A was used to saturate the corresponding solvent before it was filtered to obtain a near-saturated solution. Equal amounts of Form A and B samples were weighed and then mixed with the prepared near-saturated solution to form a new suspension, which was stirred magnetically (˜1000 rpm) at RT and 50° C.

## C[C@@H]1CN(Cc2cccc(OC(F)(F)F)c2)CCN1C(=O)Oc1cncc(C(N)=O)c1 [Form A, (R)-5-carbamoylpyridin-3-yl-2-methyl-4-(3-(trifluoromethoxy)benzyl)piperazine-1-carboxylate]
physchem; organic solvent or mixture, Approximate solubility, 1,4-dioxane, RT
  solubility: > 22000 µg/mL
physchem; organic solvent or mixture, Approximate solubility, 2-MeTHF, RT
  solubility: > 23000 µg/mL
physchem; organic solvent or mixture, Approximate solubility, ACN, RT
  solubility: > 24000 µg/mL
physchem; organic solvent or mixture, Approximate solubility, Acetone, RT
  solubility: > 17000 µg/mL
physchem; organic solvent or mixture, Approximate solubility, Anisole, RT
  solubility: > 20000 µg/mL
physchem; organic solvent or mixture, Approximate solubility, CHCl3, RT
  solubility: > 19000 µg/mL
physchem; organic solvent or mixture, Approximate solubility, DCM, RT
  solubility: > 19000 µg/mL
physchem; organic solvent or mixture, Approximate solubility, DMSO, RT
  solubility: > 20000 µg/mL
physchem; organic solvent or mixture, Approximate solubility, EtOAc, RT
  solubility: > 26000 µg/mL
physchem; organic solvent or mixture, Approximate solubility, EtOH, RT
  solubility: > 17000 µg/mL
physchem; organic solvent or mixture, Approximate solubility, IPA, RT
  solubility: > 24000 µg/mL
physchem; organic solvent or mixture, Approximate solubility, IPAC, RT
  solubility: > 21000 µg/mL
physchem; organic solvent or mixture, Approximate solubility, MIBK, RT
  solubility: > 24000 µg/mL
physchem; organic solvent or mixture, Approximate solubility, MTBE, RT
  solubility: 7700 to 11500 µg/mL (≈ 17.6 to 26.2 mM)
physchem; organic solvent or mixture, Approximate solubility, MeOH, RT
  solubility: > 23000 µg/mL
physchem; organic solvent or mixture, Approximate solubility, NMP, RT
  solubility: > 21000 µg/mL
physchem; organic solvent or mixture, Approximate solubility, THF, RT
  solubility: > 26000 µg/mL
physchem; organic solvent or mixture, Approximate solubility, n-heptane, RT
  solubility: < 900 µg/mL
physchem; organic solvent or mixture, Approximate solubility, toluene, RT
  solubility: 4500 to 6000 µg/mL (≈ 10.3 to 13.7 mM)
physchem; water, Approximate solubility, H2O, RT
  solubility: > 1000 µg/mL
[1]; FaSSIF, 37° C., 0 hr
  Solution chemical stability data: 100.0
[1]; FaSSIF, 37° C., 4 hr
  Solution chemical stability data: 100.6
[1]; FaSSIF, 37° C., 8 hr
  Solution chemical stability data: 100.2
[1]; FaSSIF, 37° C., 12 hr
  Solution chemical stability data: 100.5
[1]; FaSSIF, 37° C., 16 hr
  Solution chemical stability data: 100.3
[1]; FaSSIF, 37° C., 20 hr
  Solution chemical stability data: 100.0
[1]; FaSSIF, 37° C., 24 hr
  Solution chemical stability data: 100.0
[1]; FeSSIF, 37° C., 0 hr
  Solution chemical stability data: 100.0
[1]; FeSSIF, 37° C., 4 hr
  Solution chemical stability data: 99.6
[1]; FeSSIF, 37° C., 8 hr
  Solution chemical stability data: 100.2
[1]; FeSSIF, 37° C., 12 hr
  Solution chemical stability data: 99.7
[1]; FeSSIF, 37° C., 16 hr
  Solution chemical stability data: 99.6
[1]; FeSSIF, 37° C., 20 hr
  Solution chemical stability data: 99.8
[1]; FeSSIF, 37° C., 24 hr
  Solution chemical stability data: 99.7
[1]; SGF, 37° C., 0 hr
  Solution chemical stability data: 100.0
[1]; SGF, 37° C., 4 hr
  Solution chemical stability data: 100.2
[1]; SGF, 37° C., 8 hr
  Solution chemical stability data: 100.1
[1]; SGF, 37° C., 12 hr
  Solution chemical stability data: 99.2
[1]; SGF, 37° C., 16 hr
  Solution chemical stability data: 99.7
[1]; SGF, 37° C., 20 hr
  Solution chemical stability data: 100.4
[1]; SGF, 37° C., 24 hr
  Solution chemical stability data: 99.6
[1]; pH = 1, 37° C., 0 hr
  Solution chemical stability data: 100.0
[1]; pH = 1, 37° C., 4 hr
  Solution chemical stability data: 99.6
[1]; pH = 1, 37° C., 8 hr
  Solution chemical stability data: 100.3
[1]; pH = 1, 37° C., 12 hr
  Solution chemical stability data: 100.3
[1]; pH = 1, 37° C., 16 hr
  Solution chemical stability data: 99.9
[1]; pH = 1, 37° C., 20 hr
  Solution chemical stability data: 101.9
[1]; pH = 1, 37° C., 24 hr
  Solution chemical stability data: 100.5
[1]; pH = 3, 37° C., 0 hr
  Solution chemical stability data: 100.0
[1]; pH = 3, 37° C., 4 hr
  Solution chemical stability data: 99.8
[1]; pH = 3, 37° C., 8 hr
  Solution chemical stability data: 99.8
[1]; pH = 3, 37° C., 12 hr
  Solution chemical stability data: 98.5
[1]; pH = 3, 37° C., 16 hr
  Solution chemical stability data: 99.3
[1]; pH = 3, 37° C., 20 hr
  Solution chemical stability data: 99.6
[1]; pH = 3, 37° C., 24 hr
  Solution chemical stability data: 99.5
[1]; pH = 5.0, 37° C., 0 hr
  Solution chemical stability data: 100.0
[1]; pH = 5.0, 37° C., 4 hr
  Solution chemical stability data: 100.9
[1]; pH = 5.0, 37° C., 8 hr
  Solution chemical stability data: 101.7
[1]; pH = 5.0, 37° C., 12 hr
  Solution chemical stability data: 99.9
[1]; pH = 5.0, 37° C., 16 hr
  Solution chemical stability data: 100.7
[1]; pH = 5.0, 37° C., 20 hr
  Solution chemical stability data: 99.9
[1]; pH = 5.0, 37° C., 24 hr
  Solution chemical stability data: 99.6
[1]; pH = 6.8, 37° C., 0 hr
  Solution chemical stability data: 100.0
[1]; pH = 6.8, 37° C., 4 hr
  Solution chemical stability data: 100.2
[1]; pH = 6.8, 37° C., 8 hr
  Solution chemical stability data: 100.8
[1]; pH = 6.8, 37° C., 12 hr
  Solution chemical stability data: 100.1
[1]; pH = 6.8, 37° C., 16 hr
  Solution chemical stability data: 100.0
[1]; pH = 6.8, 37° C., 20 hr
  Solution chemical stability data: 99.6
[1]; pH = 6.8, 37° C., 24 hr
  Solution chemical stability data: 99.0
[1]; pH = 8.0, 37° C., 0 hr
  Solution chemical stability data: 100.0
[1]; pH = 8.0, 37° C., 4 hr
  Solution chemical stability data: 101.3
[1]; pH = 8.0, 37° C., 8 hr
  Solution chemical stability data: 100.5
[1]; pH = 8.0, 37° C., 12 hr
  Solution chemical stability data: 99.7
[1]; pH = 8.0, 37° C., 16 hr
  Solution chemical stability data: 100.1
[1]; pH = 8.0, 37° C., 20 hr
  Solution chemical stability data: 98.7
[1]; pH = 8.0, 37° C., 24 hr
  Solution chemical stability data: 99.4
[2]; HCl/NaCl buffer pH 1.0, simulated gastric fluid, thermodynamic from solid, pH 1.0 HCl/NaCl buffer, final measured pH 1.47
  solubility: > 20000 µg/mL
[2]; acetate buffer pH 4, aqueous buffer, thermodynamic from solid, pH 4 Acetate buffer, final measured pH 4.18
  solubility: 696 µg/mL (≈ 1.59 mM)
[2]; acetate buffer pH 5, aqueous buffer, thermodynamic from solid, pH 5 Acetate buffer, final measured pH 5.14
  solubility: 91 µg/mL (≈ 0.208 mM)
[2]; aqueous buffer, thermodynamic from solid, pH 4 (0.0001N HCl), final measured pH 7.78
  solubility: 11 µg/mL (≈ 0.0251 mM)
[2]; pH 4.9, aqueous buffer, thermodynamic from solid, pH 3 (0.001N HCl), final measured pH 4.90
  solubility: 57 µg/mL (≈ 0.13 mM)
[2]; pH 8.1, thermodynamic from solid, Water, final measured pH 8.10
  solubility: 12 µg/mL (≈ 0.0274 mM)
[2]; phosphate buffer pH 2.5, aqueous buffer, thermodynamic from solid, pH 2.5 Phosphate buffer, final measured pH 3.44
  solubility: 4330 µg/mL (≈ 9.87 mM)
[2]; phosphate buffer pH 3, pH 4.2, aqueous buffer, thermodynamic from solid, pH 3 Phosphae buffer, final measured pH 4.20
  solubility: 1250 µg/mL (≈ 2.85 mM)
[2]; phosphate buffer pH 6.8, aqueous buffer, thermodynamic from solid, pH 6.8 Phosphate buffer, final measured pH 6.88
  solubility: 7 µg/mL (≈ 0.016 mM)
[2]; phosphate buffer pH 8.0, pH 8.1, aqueous buffer, thermodynamic from solid, pH 8.0 Phosphate buffer, final measured pH 8.10
  solubility: 5 µg/mL (≈ 0.0114 mM)
[2]; simulated gastric fluid, thermodynamic from solid, SGF with pepsin, final measured pH 1.75
  solubility: > 20000 µg/mL
[2]; simulated gastric fluid, thermodynamic from solid, pH 1 (0.1N HCl), final measured pH 1.48
  solubility: > 20000 µg/mL
[2]; simulated gastric fluid, thermodynamic from solid, pH 2 (0.01N HCl), final measured pH 3.55
  solubility: 3860 µg/mL (≈ 8.8 mM)
[2]; thermodynamic from solid, FaSSIF, final measured pH 6.48
  solubility: 146 µg/mL (≈ 0.333 mM)
[2]; thermodynamic from solid, FeSSIF, final measured pH 5.17
  solubility: 1020 µg/mL (≈ 2.32 mM)
[3]; 25° C., between 0 and 95% RH
  Form change after the DVS test (XRPD comparison): no form change was observed
[3]; 25° C./80% RH
  Water uptake (DVS): 0.05%
[4]
  pKa: 5.79
[5]
  Thermodynamic stability relationship between Form A and B: thermodynamically more stable than Form B
